{"source": "patent US12691118B2", "about": "“Allosteric agonists and positive allosteric modulators of Glucagon-like peptide 1 receptor” (University of the Sciences, priority 2019, dated 2026)", "key": {"human GLP-1R": {"target": "T1, human GLP-1R (Homo sapiens, UniProt P43220)", "T1 construct": "Flag (N); host or cells: HEK293 cells stably expressing CRE/CREB luciferase reporter (BPS Bioscience #60515)", "T1 sequence (P43220 24-463)": "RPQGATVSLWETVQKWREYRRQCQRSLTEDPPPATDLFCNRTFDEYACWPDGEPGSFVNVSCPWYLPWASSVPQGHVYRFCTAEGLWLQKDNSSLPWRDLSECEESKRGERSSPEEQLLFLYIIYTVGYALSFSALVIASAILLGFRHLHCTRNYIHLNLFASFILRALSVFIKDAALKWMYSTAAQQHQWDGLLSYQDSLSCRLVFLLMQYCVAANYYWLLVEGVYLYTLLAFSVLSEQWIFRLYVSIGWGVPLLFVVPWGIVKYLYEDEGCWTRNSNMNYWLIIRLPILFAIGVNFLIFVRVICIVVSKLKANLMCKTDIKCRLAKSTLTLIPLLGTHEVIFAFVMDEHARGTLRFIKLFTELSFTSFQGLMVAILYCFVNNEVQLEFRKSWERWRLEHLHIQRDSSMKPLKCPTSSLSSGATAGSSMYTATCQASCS", "assay": "CRE luciferase reporter assay in HEK293 cells transiently expressing human GLP-1R", "assay_type": "cell-based", "conditions": "for GLP-1R activity stimulated by GLP-1 in combination with compound vs GLP-1 alone: GLP-1 0.014 nM-145 nM", "description": "HEK293 cells stably expressing CRE/CREB Reporter (luciferase) were cultured in RPMI medium supplemented with 8% (v/v) fetal bovine serum, 2% (v/v) penicillin/streptomycin, and 100 μg/ml of Hygromycin B. Cells were maintained in an incubator at 37° C. with 5% CO2. Cells were seeded into 6-well cell culture plates one day before transfection. After overnight incubation, one well of cell was transiently transfected with 3.4 μg of human GLP-1R or empty vector, respectively, using lipofectamine 2000. After 4 hours of transfection, transfection medium was replaced by RPMI medium supplemented with 5% (v/v) fetal bovine serum and 2% (v/v) penicillin/streptomycin. After 24 hours of incubation, cells were trypsinized and seeded into 96 well cell culture plates (5.5× 10^4 cells per well) and maintained at 37° C. in 5% CO2 incubator for 24 hours. The cells were starved using RPMI with 0.5% sera. After 24 hours of starvation, the transfected cells were treated with compounds as indicated.\n(§1) Compounds dissolved in 100% DMSO were diluted to indicated concentration in RPMI 1640 (0.5% DMSO included for all cell culture). After 4 hours of treatment, cells were harvested by cold luciferase cell culture lysis buffer and kept on shaker for 10 min at 4° C. Luciferase activity was measured using luciferin substrate and luminescence was read by Wallac 1420 multiplate reader. Luciferase activity of HEK293 reporting cells cultured using 0.5% DMSO and full RPMI medium was used as a vehicle control. Protein concentration of each well was determined by Bradford assay.\nThe concentration-dependent dose response curve was generated using Graph Pad Prism 6.0 for Mac (GraphPad Software Inc., San Diego, CA). The curves were fitted based on sigmoidal dose response with the bottom parameter being kept 0. The EC50 value was calculated from Prism. The statistical difference between different groups was analyzed by 2-way ANOVA module in Prism."}, "[1]": {"target": "T2, Vasoactive Intestinal Polypeptide Receptor 1 (VIPR1) (Homo sapiens, UniProt P32241)", "T2 construct": "host or cells: HEK293 cells stably expressing CRE/CREB luciferase reporter", "T2 sequence (P32241 31-457)": "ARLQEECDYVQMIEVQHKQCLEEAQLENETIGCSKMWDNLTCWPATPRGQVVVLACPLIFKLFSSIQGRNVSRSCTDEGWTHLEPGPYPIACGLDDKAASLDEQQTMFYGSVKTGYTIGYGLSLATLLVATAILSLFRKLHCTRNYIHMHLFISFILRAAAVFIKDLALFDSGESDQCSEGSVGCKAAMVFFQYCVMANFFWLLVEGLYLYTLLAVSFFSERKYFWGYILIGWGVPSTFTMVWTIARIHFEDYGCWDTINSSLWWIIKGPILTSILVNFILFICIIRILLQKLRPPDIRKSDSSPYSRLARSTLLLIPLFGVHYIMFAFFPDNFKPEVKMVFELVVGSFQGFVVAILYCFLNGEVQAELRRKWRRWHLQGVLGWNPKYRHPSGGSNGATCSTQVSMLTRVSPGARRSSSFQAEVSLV", "assay": "Non-specific effect on VIPR1, luciferase assay in HEK293 cells overexpressing VIPR1", "assay_type": "cell-based", "conditions": "Ib 23.5 μM; VIPR peptide agonist 0.014 nM-145 nM", "description": "as §1\nHEK293 cells stably expressing CRE/CREB Reporter (luciferase) were cultured in RPMI 1640 supplemented with 8% (v/v) fetal bovine serum, 2% (v/v) penicillin/streptomycin, and 100 μg/ml of Hygromycin B. Cells were maintained at 37° C. with 5% CO2. Cells were seeded into 6-well cell culture plates one day before transfection. After overnight incubation, cells were transiently transfected with 3.4 μg of VIPR1, using Lipofectamine 2000. After 4 hours of transfection, medium was replaced by RPMI supplemented with 5% (v/v) fetal bovine serum. After 24 hours of incubation, cells were trypsinized and seeded into 96 well cell culture plates (5.5×10^4 cells per well) and maintained at 37° C. in 5% CO2 for 24 hours. After 24 hours of incubation, the cells were starved with RPMI with 0.5% sera. […]"}, "INS-1 832/13 cells": {"system": "INS-1 832/13 cells", "assay": "Glucose stimulated insulin production in INS-1 832/13 cells", "assay_type": "cell-based, rat", "conditions": "16.7 mM glucose", "description": "INS-1 832/13 cells were cultured in RPMI 1640 supplemented with 2 mM L-glutamine, 1 mM sodium pyruvate, 10% FBS, 10 mM HEPES, 100 units/ml penicillin, 100 μg/ml streptomycin, and 50 μM β-mercaptoethanol. Cells were maintained in an incubator at 37° C. with 5% CO2. To determine the effect of GLP-1R agonist Ia and PAM Ib on insulin production, INS-1 cells were seeded onto 24 well plates. After 48 hours of incubation, cells were washed twice with 200 μl of Krebs-Ringer Bicarbonate (KRB) buffer and starved for 2 hours in fresh KRB supplemented with 0.1% serum. […] After 20 minutes, the supernatant was collected, centrifuged at 1000 rpm for 5 min at 4° C., and aliquoted and stored at −20° C. These samples were used to determine insulin concentration using insulin detection kit ELISA following the manual."}, "[2]": {"assay": "Compound stability (statement)", "assay_type": "physicochemical"}}, "note": "“Also recorded” adds a separate entry of the source. Ends that are not written are not given here.", "data": [{"compound": "CCOC(=O)c1c(N)sc2c1CCCC2C", "note": "(centres unmarked) [Compound Ib, ethyl 2-amino-7-methyl-4,5,6,7-tetrahydrobenzo[b]thiophene-3-carboxylate]", "values": [{"measurement": "GLP-1R activity stimulated by GLP-1 in combination with compound vs GLP-1 alone", "setting": "human GLP-1R; Ib 23.5 μM", "value": "significantly increased"}, {"measurement": "non-specific activity on VIPR1 (VIPR1 activity with VIPR agonist in combination with Ib vs agonist alone)", "setting": "[1]", "value": "did not induce non-specific activity; also recorded: no potential non-specific activity on VIPR1"}, {"measurement": "insulin secretion, Ib in combination with GLP-1 vs GLP-1 alone", "setting": "INS-1 832/13 cells; Ib 11.75 μM + GLP-1 0.18 μM", "value": "more than 2.5 fold"}, {"measurement": "amount of insulin produced by Ib compared with vehicle control", "setting": "INS-1 832/13 cells; Ib 11.75 μM alone", "value": "no significant difference"}]}, {"compound": "CC1CCCc2c1sc1nc(S)n(N)c(=O)c21", "note": "(centres unmarked) [Compound Ic, 3-amino-2-mercapto-8-methyl-5,6,7,8-tetrahydrobenzo[4,5]thieno[2,3-d]pyrimidin-4(3H)-one]", "values": [{"measurement": "GLP-1R activity stimulated by GLP-1 in combination with compound vs GLP-1 alone", "setting": "human GLP-1R; Ic 71 μM", "value": "significantly increased"}, {"measurement": "potency as PAM (statement)", "setting": "human GLP-1R; compared with Ib", "value": "less potent"}, {"measurement": "stability (statement)", "setting": "[2]", "value": "unstable"}]}, {"compound": "GLP-1: GLP-1R peptide agonist (Sigma #9416), endogenous ligand of GLP-1R (HAEGTFTSDVSSYLEGQAAKEFIAWLVKGR; ends and bridges not checked; UniProt P01275 98-127, looked up) [reference compound]", "values": [{"measurement": "insulin production compared to vehicle control", "setting": "INS-1 832/13 cells; GLP-1 0.18 μM, both time points", "value": "more than two-fold"}]}]}
